{"source": "paper PMC9838390", "about": "“Discovery and biosynthesis of karnamicins as angiotensin converting enzyme inhibitors” (Nature Communications, 2023)", "key": {"KnmB1": {"tested_on": "KnmB1", "experiment": "Hydrogen peroxide formation assay of KnmB1 and variants", "assay_type": "biochemical, L. rhizosphaerae NEAU-A2", "details": "30 °C, average of 3", "protocol": "(§1) Hydrogen peroxide formation assay and NADPH oxidation\n(§2) The hydrogen peroxide formed from KnmB1, KnmB2 and their variants were measured using the Hydrogen Peroxide Assay Kit (Beyotime Industrial Co. Ltd, Shanghai, China)4-5. 5–100 µL of enzyme reaction mixture was added to 100 µL of working reagent (S0038-1). The mixture was incubated for 30 min at 25 °C, at which time the absorbance at 560 nm was measured by NanoDrop 2000c (Fisher Scientific). […]\n(§3) Spectral data for new compounds […]\nSupplementary Figure 131. H2O2 generation and NADPH oxidation for KnmB2, KnmB1 and their variants. (a) Hydrogen peroxide formation of KnmB2 and variants. […]\n(b) Hydrogen peroxide formation of KnmB1 and variants. Reaction conditions: 100 µL system containing 50 mM Tris-HCl buffer (pH 7.5), 1 mM NADPH, 16 μM KnmB2, 17 μM KnmB1 or variants, 0.1 mM compound 24,1 mM SAM, and 2 […]\n(1 picture or pasted object on this page, not shown here) […]\nμM KnmF at 30 °C for 3h. (c) Hydrogen peroxide formation of KnmB1 and variants.\nReaction conditions: 100µL system containing 50 mM Tris-HCl buffer (pH 7.5), 0.3 mM NADPH, and 6 μM KnmB1 or variants, or 0.1 mM 24 at 30 °C for 30 min. […]\n2 μM KnmB2 or variants, or 0.1 mM substrate 24/32. […]\nSource data are provided as a Source Data file. […]"}, "KnmB2": {"tested_on": "KnmB2", "experiment": "NADPH oxidation of KnmB2 and variants (340 nm)", "assay_type": "biochemical, L. rhizosphaerae NEAU-A2", "protocol": "as §1\nas §2, with “Scientific). The level of H2O2 was calculated according to a standard concentration curve from standard” for “Scientific).”\nNADPH detection was carried out in the cuvette by NanoDrop 2000c (Fisher Scientific). NADPH signal at 340 nm was monitored in time using 6220 M–1 cm–1 as […]\nas §3\nReaction conditions: 50 mM Tris-HCl buffer (pH 7.5),\n0.15 mM NADPH, and 2 μM KnmB1 or KnmB2. […]\nμM KnmB1 or variants, or 0.1 mM substrate 24/32/36. (h) NADPH oxidation of KnmB2 and variants. (i) NADPH oxidation of KnmB2 and variants in the presence 24 or 32. (j) H2O2 generation for KnmB2 and variants in the presence 24 or 32. Reaction conditions (h-j) for KnmB2 and their variants: 50 mM Tris-HCl buffer (pH 7.5), 0.15 mM NADPH, 2 μM KnmB2 or variants, or 0.1 mM substrate 24/32. Values are the means ± SD of n = 3 independent experiments, except for KnmB2+24 (T = 40 min), KnmB2-N219D+24 (T = 4 min), KnmB2-Y215F+24 (T= 1 min and 3 min) in i and j, and KnmB2+32 (T= 8 min) in j (n = 2). Source data are provided as a Source Data file. […]"}}, "data": [{"smiles": "CC(C)CCCCc1nc(-c2cc(O)cc(C(N)=O)n2)cs1", "note": "[Compound 24]", "values": [{"measurement": "hydrogen peroxide formation of KnmB1 (absorbance UV λ=560 nm), average value", "setting": "KnmB1; Fig. S131b, 1 mM NADPH, 17 μM KnmB1, 0.1 mM compound, 3 h", "result": 0.5214}, {"measurement": "hydrogen peroxide formation of KnmB1 (absorbance UV λ=560 nm), average value", "setting": "KnmB1; Fig. S131c, 0.3 mM NADPH, 6 μM KnmB1, 0.1 mM compound, 30 min", "result": 1.0442}, {"measurement": "NADPH oxidation, average value", "setting": "KnmB2; KnmB2+24, Time 0", "result": 0.0000, "unit": "µM"}, {"measurement": "NADPH oxidation, average value", "setting": "KnmB2; KnmB2+24, Time 1", "result": 5.8950, "unit": "µM"}, {"measurement": "NADPH oxidation, average value", "setting": "KnmB2; KnmB2+24, Time 2", "result": 11.0397, "unit": "µM"}, {"measurement": "NADPH oxidation, average value", "setting": "KnmB2; KnmB2+24, Time 3", "result": 17.6849, "unit": "µM"}, {"measurement": "NADPH oxidation, average value", "setting": "KnmB2; KnmB2+24, Time 4", "result": 25.7235, "unit": "µM"}, {"measurement": "NADPH oxidation, average value", "setting": "KnmB2; KnmB2+24, Time 5", "result": 35.2090, "unit": "µM"}, {"measurement": "NADPH oxidation, average value", "setting": "KnmB2; KnmB2+24, Time 8", "result": 55.4662, "unit": "µM"}, {"measurement": "NADPH oxidation, average value", "setting": "KnmB2; KnmB2+24, Time 10", "result": 66.9346, "unit": "µM"}, {"measurement": "NADPH oxidation, average value", "setting": "KnmB2; KnmB2+24, Time 15", "result": 84.8339, "unit": "µM"}, {"measurement": "NADPH oxidation, average value", "setting": "KnmB2; KnmB2+24, Time 20", "result": 95.5520, "unit": "µM"}, {"measurement": "NADPH oxidation, average value", "setting": "KnmB2; KnmB2+24, Time 30", "result": 104.1265, "unit": "µM"}, {"measurement": "NADPH oxidation, average value", "setting": "KnmB2; KnmB2+24, Time 40", "result": 102.4920, "unit": "µM"}, {"measurement": "NADPH oxidation, average value", "setting": "KnmB2; KnmB2+24, Time 60", "result": 111.3076, "unit": "µM"}, {"measurement": "NADPH oxidation, average value", "setting": "KnmB2; KnmB2-F205A+24, Time 0", "result": 0.0000, "unit": "µM"}, {"measurement": "NADPH oxidation, average value", "setting": "KnmB2; KnmB2-F205A+24, Time 1", "result": 0.7985, "unit": "µM"}, {"measurement": "NADPH oxidation, average value", "setting": "KnmB2; KnmB2-F205A+24, Time 2", "result": 1.4255, "unit": "µM"}, {"measurement": "NADPH oxidation, average value", "setting": "KnmB2; KnmB2-F205A+24, Time 3", "result": 1.3880, "unit": "µM"}, {"measurement": "NADPH oxidation, average value", "setting": "KnmB2; KnmB2-F205A+24, Time 4", "result": 1.7631, "unit": "µM"}, {"measurement": "NADPH oxidation, average value", "setting": "KnmB2; KnmB2-F205A+24, Time 5", "result": 1.7310, "unit": "µM"}, {"measurement": "NADPH oxidation, average value", "setting": "KnmB2; KnmB2-F205A+24, Time 8", "result": 1.8274, "unit": "µM"}, {"measurement": "NADPH oxidation, average value", "setting": "KnmB2; KnmB2-F205A+24, Time 10", "result": 2.3312, "unit": "µM"}, {"measurement": "NADPH oxidation, average value", "setting": "KnmB2; KnmB2-F205A+24, Time 15", "result": 2.6313, "unit": "µM"}, {"measurement": "NADPH oxidation, average value", "setting": "KnmB2; KnmB2-F205A+24, Time 20", "result": 3.4566, "unit": "µM"}, {"measurement": "NADPH oxidation, average value", "setting": "KnmB2; KnmB2-F205A+24, Time 30", "result": 5.0911, "unit": "µM"}, {"measurement": "NADPH oxidation, average value", "setting": "KnmB2; KnmB2-F205A+24, Time 40", "result": 7.7546, "unit": "µM"}, {"measurement": "NADPH oxidation, average value", "setting": "KnmB2; KnmB2-F205A+24, Time 60", "result": 10.8575, "unit": "µM"}, {"measurement": "NADPH oxidation, average value", "setting": "KnmB2; KnmB2-N291D+24, Time 0", "result": 0.0000, "unit": "µM"}, {"measurement": "NADPH oxidation, average value", "setting": "KnmB2; KnmB2-N291D+24, Time 2", "result": 1.4470, "unit": "µM"}, {"measurement": "NADPH oxidation, average value", "setting": "KnmB2; KnmB2-N291D+24, Time 4", "result": 2.7331, "unit": "µM"}, {"measurement": "NADPH oxidation, average value", "setting": "KnmB2; KnmB2-N291D+24, Time 5", "result": 4.2337, "unit": "µM"}, {"measurement": "NADPH oxidation, average value", "setting": "KnmB2; KnmB2-N291D+24, Time 8", "result": 6.8060, "unit": "µM"}, {"measurement": "NADPH oxidation, average value", "setting": "KnmB2; KnmB2-N291D+24, Time 10", "result": 8.5745, "unit": "µM"}, {"measurement": "NADPH oxidation, average value", "setting": "KnmB2; KnmB2-N291D+24, Time 15", "result": 11.8971, "unit": "µM"}, {"measurement": "NADPH oxidation, average value", "setting": "KnmB2; KnmB2-N291D+24, Time 20", "result": 16.3451, "unit": "µM"}, {"measurement": "NADPH oxidation, average value", "setting": "KnmB2; KnmB2-N291D+24, Time 30", "result": 24.5445, "unit": "µM"}, {"measurement": "NADPH oxidation, average value", "setting": "KnmB2; KnmB2-N291D+24, Time 40", "result": 34.3516, "unit": "µM"}, {"measurement": "NADPH oxidation, average value", "setting": "KnmB2; KnmB2-N291D+24, Time 60", "result": 49.1426, "unit": "µM"}, {"measurement": "NADPH oxidation, average value", "setting": "KnmB2; KnmB2-Y215A+24, Time 0", "result": 0.0000, "unit": "µM"}, {"measurement": "NADPH oxidation, average value", "setting": "KnmB2; KnmB2-Y215A+24, Time 1", "result": 0.2519, "unit": "µM"}, {"measurement": "NADPH oxidation, average value", "setting": "KnmB2; KnmB2-Y215A+24, Time 2", "result": 0.5145, "unit": "µM"}, {"measurement": "NADPH oxidation, average value", "setting": "KnmB2; KnmB2-Y215A+24, Time 3", "result": 0.7020, "unit": "µM"}, {"measurement": "NADPH oxidation, average value", "setting": "KnmB2; KnmB2-Y215A+24, Time 4", "result": 0.6913, "unit": "µM"}, {"measurement": "NADPH oxidation, average value", "setting": "KnmB2; KnmB2-Y215A+24, Time 5", "result": 0.7449, "unit": "µM"}, {"measurement": "NADPH oxidation, average value", "setting": "KnmB2; KnmB2-Y215A+24, Time 8", "result": 0.9968, "unit": "µM"}, {"measurement": "NADPH oxidation, average value", "setting": "KnmB2; KnmB2-Y215A+24, Time 10", "result": 1.3237, "unit": "µM"}, {"measurement": "NADPH oxidation, average value", "setting": "KnmB2; KnmB2-Y215A+24, Time 15", "result": 2.0043, "unit": "µM"}, {"measurement": "NADPH oxidation, average value", "setting": "KnmB2; KnmB2-Y215A+24, Time 20", "result": 2.2883, "unit": "µM"}, {"measurement": "NADPH oxidation, average value", "setting": "KnmB2; KnmB2-Y215A+24, Time 30", "result": 3.8532, "unit": "µM"}, {"measurement": "NADPH oxidation, average value", "setting": "KnmB2; KnmB2-Y215A+24, Time 40", "result": 5.5520, "unit": "µM"}, {"measurement": "NADPH oxidation, average value", "setting": "KnmB2; KnmB2-Y215A+24, Time 60", "result": 9.2926, "unit": "µM"}, {"measurement": "NADPH oxidation, average value", "setting": "KnmB2; KnmB2-Y215F+24, Time 0", "result": 0.0000, "unit": "µM"}, {"measurement": "NADPH oxidation, average value", "setting": "KnmB2; KnmB2-Y215F+24, Time 1", "result": 2.5724, "unit": "µM"}, {"measurement": "NADPH oxidation, average value", "setting": "KnmB2; KnmB2-Y215F+24, Time 2", "result": 4.4480, "unit": "µM"}, {"measurement": "NADPH oxidation, average value", "setting": "KnmB2; KnmB2-Y215F+24, Time 3", "result": 6.5113, "unit": "µM"}, {"measurement": "NADPH oxidation, average value", "setting": "KnmB2; KnmB2-Y215F+24, Time 4", "result": 8.5745, "unit": "µM"}, {"measurement": "NADPH oxidation, average value", "setting": "KnmB2; KnmB2-Y215F+24, Time 5", "result": 12.2187, "unit": "µM"}, {"measurement": "NADPH oxidation, average value", "setting": "KnmB2; KnmB2-Y215F+24, Time 8", "result": 19.5606, "unit": "µM"}, {"measurement": "NADPH oxidation, average value", "setting": "KnmB2; KnmB2-Y215F+24, Time 10", "result": 24.7588, "unit": "µM"}, {"measurement": "NADPH oxidation, average value", "setting": "KnmB2; KnmB2-Y215F+24, Time 15", "result": 37.2990, "unit": "µM"}, {"measurement": "NADPH oxidation, average value", "setting": "KnmB2; KnmB2-Y215F+24, Time 20", "result": 48.1779, "unit": "µM"}, {"measurement": "NADPH oxidation, average value", "setting": "KnmB2; KnmB2-Y215F+24, Time 30", "result": 66.6667, "unit": "µM"}, {"measurement": "NADPH oxidation, average value", "setting": "KnmB2; KnmB2-Y215F+24, Time 40", "result": 81.1361, "unit": "µM"}, {"measurement": "NADPH oxidation, average value", "setting": "KnmB2; KnmB2-Y215F+24, Time 60", "result": 100.0536, "unit": "µM"}, {"measurement": "coupling efficiency", "setting": "KnmB2; hydroxylatable effector for KnmB2, from NADPH consumption and H2O2 formation in time", "result": "0–45%"}]}]}
